Converted amounts (≈) assume the structure as drawn.
What was measured:
Type in all cases: functional
Candida albicans [1] = test: Antifungal activity against Candida albicans B-311
Candida albicans [2] = test: Antifungal activity against resistant Candida albicans ATCC 64124
Fusarium graminearum [3] = test: Synergistic antifungal activity against Fusarium graminearum B4-5A strain B in presence of fluconazole after 48 hrs by checkerboard method
Fusarium graminearum [4] = test: Antifungal activity against Fusarium graminearum infected in wheat plant assessed as fusarium head blight index at 360 mg/L (reference value: 53%)
Fusarium graminearum [5] = test: Antifungal activity against Fusarium graminearum B4-5A strain D after 48 hrs by microdilution assay
Fusarium graminearum [6] = test: Synergistic antifungal activity against Fusarium graminearum B4-5A strain A in presence of fluconazole after 48 hrs by microdilution assay
Fusarium graminearum [7] = test: Synergistic antifungal activity against Fusarium graminearum B4-5A strain D in presence of fluconazole after 48 hrs by microdilution assay
Fusarium graminearum [8] = test: Synergistic antifungal activity against Fusarium graminearum infected in wheat plant assessed as fusarium head blight severity at 180 mg/L in presence of 0.438 L/ha prosaro 421 SC (reference value: 75%)
Candida tropicalis = test: Antifungal activity against Candida tropicalis 95-41
Fusarium graminearum [9] = test: Synergistic antifungal activity against Fusarium graminearum infected in wheat plant assessed as fusarium head blight severity at 360 mg/L in presence of 0.512 L/ha caramba (reference value: 75%)
Micrococcus luteus = test: Antibacterial activity against Micrococcus luteus ATCC 10240
Fusarium graminearum [10] = test: Antifungal activity against Fusarium graminearum B4-5A strain E after 48 hrs by microdilution assay
Fusarium graminearum [11] = test: Synergistic antifungal activity against Fusarium graminearum infected in wheat plant assessed as fusarium head blight severity at 360 mg/L in presence of 0.438 L/ha prosaro 421 SC (reference value: 75%)
Fusarium graminearum [12] = test: Synergistic antifungal activity against Fusarium graminearum B4-5A strain C assessed as fluconazole MIC after 48 hrs by microdilution assay
Fusarium oxysporum = test: Antifungal activity against Fusarium oxysporum
Fusarium graminearum [13] = test: Synergistic antifungal activity against Fusarium graminearum B4-5A strain A in presence of fluconazole after 48 hrs by checkerboard method
Fusarium graminearum [14] = test: Synergistic antifungal activity against Fusarium graminearum infected in wheat plant assessed as fusarium head blight index at 360 mg/L in presence of 0.512 L/ha caramba (reference value: 53%)
Fusarium graminearum [15] = test: Synergistic antifungal activity against Fusarium graminearum B4-5A strain E assessed as fluconazole MIC after 48 hrs by microdilution assay
Fusarium graminearum [16] = test: Synergistic antifungal activity against Fusarium graminearum infected in wheat plant assessed as fusarium head blight index at 180 mg/L in presence of 0.438 L/ha prosaro 421 SC (reference value: 53%)
Fusarium graminearum [17] = test: Synergistic antifungal activity against Fusarium graminearum infected in wheat plant assessed as fusarium head blight incidence at 360 mg/L in presence of 0.438 L/ha prosaro 421 SC (reference value: 70%)
Fusarium graminearum [18] = test: Synergistic antifungal activity against Fusarium graminearum infected in wheat plant assessed as spikelet curling at 360 mg/L in presence of 8 ml/L pyraclostrobin (reference value: 51.4%)
Fusarium graminearum [19] = test: Antifungal activity against Fusarium graminearum B4-5A strain B after 48 hrs by microdilution assay
Escherichia coli = test: Antibacterial activity against Escherichia coli TG1
Fusarium graminearum [20] = test: Synergistic antifungal activity against Fusarium graminearum infected in wheat plant assessed as fusarium head blight severity at 180 mg/L in presence of 0.512 L/ha caramba (reference value: 75%)
Fusarium graminearum [21] = test: Synergistic antifungal activity against Fusarium graminearum B4-5A strain C in presence of fluconazole after 48 hrs by checkerboard method
Fusarium graminearum [22] = test: Synergistic antifungal activity against Fusarium graminearum infected in wheat plant assessed as fusarium head blight index at 180 mg/L in presence of 0.512 L/ha caramba (reference value: 53%)
Fusarium graminearum [23] = test: Synergistic antifungal activity against Fusarium graminearum infected in wheat plant assessed as fusarium head blight index at 360 mg/L in presence of 0.438 L/ha prosaro 421 SC (reference value: 53%)
Fusarium graminearum [24] = test: Synergistic antifungal activity against Fusarium graminearum B4-5A strain B assessed as fluconazole MIC after 48 hrs by microdilution assay
Fusarium graminearum [25] = test: Antifungal activity against Fusarium graminearum B4-5A strain A after 48 hrs by microdilution assay
Fusarium graminearum [26] = test: Synergistic antifungal activity against Fusarium graminearum B4-5A strain B in presence of fluconazole after 48 hrs by microdilution assay
Candida parapsilosis [27] = test: Antifungal activity against resistant Candida parapsilosis; conditions: Lodderomyces parapsilosis
Fusarium graminearum [28] = test: Synergistic antifungal activity against Fusarium graminearum infected in wheat plant assessed as spikelet curling at 360 mg/L in presence of 4 ml/L pyraclostrobin (reference value: 51.4%)
Fusarium graminearum [29] = test: Antifungal activity against Fusarium graminearum infected in wheat plant assessed as fusarium head blight severity at 180 mg/L (reference value: 75%)
Fusarium graminearum [30] = test: Antifungal activity against Fusarium graminearum infected in wheat plant assessed as fusarium head blight incidence at 180 mg/L (reference value: 70%)
Candida parapsilosis [31] = test: Antifungal activity against sensitive Candida parapsilosis; conditions: Lodderomyces parapsilosis
Fusarium graminearum [32] = test: Synergistic antifungal activity against Fusarium graminearum B4-5A strain D assessed as fluconazole MIC after 48 hrs by microdilution assay
Cryptococcus neoformans [33] = test: Antifungal activity against Cryptococcus neoformans 94-2586
Fusarium graminearum [34] = test: Antifungal activity against Fusarium graminearum infected in wheat plant assessed as spikelet curling at 360 mg/L (reference value: 51.4%)
Aspergillus niger = test: Antifungal activity against Aspergillus niger
Fusarium graminearum [35] = test: Synergistic antifungal activity against Fusarium graminearum infected in wheat plant assessed as contamination of wheat heads and kernels with deoxynivalenol at 360 mg/L in presence of 2.8 ml/L proline 480 SC (reference value: 1.2 ppm)
Fusarium graminearum [36] = test: Antifungal activity against Fusarium graminearum infected in wheat plant assessed as fusarium head blight incidence at 360 mg/L (reference value: 70%)
Fusarium graminearum [37] = test: Antifungal activity against Fusarium graminearum infected in wheat plant assessed as fusarium head blight severity at 360 mg/L (reference value: 75%)
Staphylococcus aureus = test: Antibacterial activity against Staphylococcus aureus ATCC 25923
Fusarium graminearum [38] = test: Antifungal activity against Fusarium graminearum infected in wheat plant assessed as contamination of wheat heads and kernels with deoxynivalenol at 360 mg/L (reference value: 1.2 ppm)
Fusarium graminearum [39] = test: Antifungal activity against Fusarium graminearum B-4-5A
Fusarium graminearum [40] = test: Synergistic antifungal activity against Fusarium graminearum B4-5A strain E in presence of fluconazole after 48 hrs by microdilution assay
Aspergillus flavus = test: Antifungal activity against Aspergillus flavus
Cryptococcus neoformans [41] = test: Antifungal activity against Cryptococcus neoformans 90-26
Diutina rugosa = test: Antifungal activity against Candida rugosa 95-967

SMILES: CCCCCCCCS(=O)(=O)OC[C@H]1O[C@H](O[C@@H]2[C@@H](O)[C@H](O[C@H]3O[C@H](CN)[C@@H](O)[C@H](O)[C@H]3O)[C@@H](N)C[C@H]2N)[C@H](O)[C@@H](N)[C@@H]1O
- MIC (Candida albicans [1]): > 7.8 µg/mL
- MIC (Candida albicans [2]): 31.3 µg/mL (≈ 47.4 µM)
- fractional inhibitory concentration index (FICI) (Fusarium graminearum [3]): 0.5
- Activity_index (Fusarium graminearum [4]): 8%
- MIC (Fusarium graminearum [5]): 16 µg/mL (≈ 24.2 µM)
- MIC (Fusarium graminearum [6]): 4 µg/mL
- MIC (Fusarium graminearum [7]): 8 µg/mL
- Activity (Fusarium graminearum [8]): 55%
- MIC (Candida tropicalis): 15.6 µg/mL (≈ 23.6 µM)
- Activity (Fusarium graminearum [9]): 61%
- MIC (Micrococcus luteus): 62.5 µg/mL (≈ 94.6 µM)
- MIC (Fusarium graminearum [10]): 16 µg/mL (≈ 24.2 µM)
- Activity (Fusarium graminearum [11]): 54%
- MIC (Fusarium graminearum [12]): 0.25 µg/mL
- MIC (Fusarium oxysporum): 31.3 µg/mL (≈ 47.4 µM)
- fractional inhibitory concentration index (FICI) (Fusarium graminearum [13]): 0.37
- Activity_index (Fusarium graminearum [14]): 8%
- MIC (Fusarium graminearum [15]): 12.5 µg/mL
- Activity_index (Fusarium graminearum [16]): 6%
- Activity (Fusarium graminearum [17]): 10%
- Activity (Fusarium graminearum [18]): 1.5%
- MIC (Fusarium graminearum [19]): 16 µg/mL (≈ 24.2 µM)
- MIC (Escherichia coli): 125 to 250 µg/mL (≈ 189 to 378 µM)
- Activity (Fusarium graminearum [20]): 50%
- fractional inhibitory concentration index (FICI) (Fusarium graminearum [21]): 0.37
- Activity_index (Fusarium graminearum [22]): 7%
- Activity_index (Fusarium graminearum [23]): 5%
- MIC (Fusarium graminearum [24]): 6.25 µg/mL
- MIC (Fusarium graminearum [25]): 16 µg/mL (≈ 24.2 µM)
- MIC (Fusarium graminearum [26]): 4 µg/mL
- MIC (Candida parapsilosis [27]): 15.6 to 31.3 µg/mL (≈ 23.6 to 47.4 µM)
- Activity (Fusarium graminearum [28]): 4.7%
- Activity (Fusarium graminearum [29]): 60%
- Activity (Fusarium graminearum [30]): 15%
- MIC (Candida parapsilosis [31]): 15.6 µg/mL (≈ 23.6 µM)
- MIC (Fusarium graminearum [32]): 0.195 µg/mL
- MIC (Cryptococcus neoformans [33]): 3.9 to 7.8 µg/mL (≈ 5.9 to 11.8 µM)
- Activity (Fusarium graminearum [34]): 34.7%
- MIC (Aspergillus niger): > 150 µg/mL
- Activity (Fusarium graminearum [35]): 0.3 ppm
- Activity (Fusarium graminearum [36]): 14%
- Activity (Fusarium graminearum [37]): 62%
- MIC (Staphylococcus aureus): 250 µg/mL (≈ 378 µM)
- Activity (Fusarium graminearum [38]): 1.4 ppm
- MIC (Fusarium graminearum [39]): 7.8 µg/mL (≈ 11.8 µM)
- MIC (Fusarium graminearum [40]): 4 µg/mL
- MIC (Aspergillus flavus): 300 µg/mL (≈ 454 µM)
- MIC (Cryptococcus neoformans [41]): 3.9 to 7.8 µg/mL (≈ 5.9 to 11.8 µM)
- MIC (Diutina rugosa): 15.6 µg/mL (≈ 23.6 µM)
